Data: ChEMBL document CHEMBL5137043, “trans, trans-2-C-Aryl-3,4-dihydroxypyrrolidines as potent and selective β-glucosidase inhibitors: Pharmacological chaperones for Gaucher disease” (Eur J Med Chem, 2022)

How the values were obtained:
[1] = test system: Penicillium decumbens; assay: Inhibition of Penicillium decumbens alpha-L-rhamnosidase assessed as reduction of p-nitrophenol release using p-nitrophenyl-glycoside as substrate at 1000 uM by spectrophotometric analysis
[2] = Inhibition of human lysosomal beta-glucosidase assessed as reduction of p-nitrophenol release using p-nitrophenyl-glycoside as substrate by spectrophotometric analysis; type: subcellular, Lysosome
[3] = test system: Aspergillus niger; assay: Inhibition of Aspergillus niger amyloglucosidase assessed as reduction of p-nitrophenol release using p-nitrophenyl-glycoside as substrate at 1000 uM by spectrophotometric analysis
[4] = test system: Helix pomatia; assay: Inhibition of snail beta-mannosidase assessed as reduction of p-nitrophenol release using p-nitrophenyl-glycoside as substrate at 1000 uM by spectrophotometric analysis
[5] = molecular target: Lysosomal alpha-glucosidase (Homo sapiens) (UniProt P10253); assay: Inhibition of human lysosomal alpha-glucosidase assessed as reduction of p-nitrophenol release using p-nitrophenyl-glycoside as substrate at 1000 uM by spectrophotometric analysis; details: Lysosome
[6] = molecular target: T1, Tissue alpha-L-fucosidase (Bos taurus) (UniProt Q2KIM0); assay: Inhibition of bovine kidney alpha-L-fucosidase assessed as reduction of p-nitrophenol release using p-nitrophenyl-glycoside as substrate at 1000 uM by spectrophotometric analysis; type: tissue-based
T1 sequence (whole entry): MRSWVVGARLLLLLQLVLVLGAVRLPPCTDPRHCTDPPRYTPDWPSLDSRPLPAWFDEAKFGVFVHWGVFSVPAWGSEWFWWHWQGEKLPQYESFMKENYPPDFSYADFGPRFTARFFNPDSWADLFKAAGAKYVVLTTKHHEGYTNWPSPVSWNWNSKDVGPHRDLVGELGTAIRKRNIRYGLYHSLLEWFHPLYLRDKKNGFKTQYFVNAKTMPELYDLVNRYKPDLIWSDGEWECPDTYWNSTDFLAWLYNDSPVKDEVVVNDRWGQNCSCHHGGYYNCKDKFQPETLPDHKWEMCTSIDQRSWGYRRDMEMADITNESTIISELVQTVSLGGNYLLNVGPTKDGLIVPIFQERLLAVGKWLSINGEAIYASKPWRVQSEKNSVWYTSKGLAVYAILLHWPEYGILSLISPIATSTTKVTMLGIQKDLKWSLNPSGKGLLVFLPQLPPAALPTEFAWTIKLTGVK

[7] = molecular target: Alpha-galactosidase (Coffea arabica) (UniProt Q42656); assay: Inhibition of coffee beans alpha-galactosidase assessed as reduction of p-nitrophenol release using p-nitrophenyl-glycoside as substrate at 1000 uM by spectrophotometric analysis
[8] = molecular target: Sucrase-isomaltase, intestinal (Rattus norvegicus, UniProt P23739); assay: Inhibition of rat small intestinal sucrase assessed as reduction of p-nitrophenol release using p-nitrophenyl-glycoside as substrate by spectrophotometric analysis; type: tissue-based, Small intestine
[9] = molecular target: Lysosomal alpha-glucosidase (Rattus norvegicus) (UniProt Q6P7A9); assay: Inhibition of rat small intestinal maltase assessed as reduction of D-glucose release using maltose as substrate at 1000 uM by colorimetric analysis; type: tissue-based; details: Small intestine
[10] = test system: Saccharomyces cerevisiae; assay: Inhibition of yeast alpha-glucosidase assessed as reduction of p-nitrophenol release using p-nitrophenyl-glycoside as substrate at 1000 uM by spectrophotometric analysis
[11] = test system: Prunus dulcis; assay: Inhibition of almond beta-glucosidase assessed as reduction of p-nitrophenol release using p-nitrophenyl-glycoside as substrate at 1000 uM by spectrophotometric analysis
[12] = test system: Escherichia coli; assay: Inhibition of Escherichia coli beta-glucuronidase assessed as reduction of p-nitrophenol release using p-nitrophenyl-glycoside as substrate at 1000 uM by spectrophotometric analysis
[13] = organism: Bos taurus; assay: Inhibition of bovine liver beta-galactosidase assessed as reduction of p-nitrophenol release using p-nitrophenyl-glycoside as substrate at 1000 uM by spectrophotometric analysis
[14] = test system: Oryza sativa; assay: Inhibition of rice alpha-glucosidase assessed as reduction of p-nitrophenol release using p-nitrophenyl-glycoside as substrate at 1000 uM by spectrophotometric analysis
[15] = organism: Bos taurus; assay: Inhibition of bovine liver beta-glucuronidase assessed as reduction of p-nitrophenol release using p-nitrophenyl-glycoside as substrate at 1000 uM by spectrophotometric analysis
[16] = organism: Sus scrofa; assay: Inhibition of porcine kidney alpha-trehalase assessed as reduction of p-nitrophenol release using p-nitrophenyl-glycoside as substrate at 1000 uM by spectrophotometric analysis; type: tissue-based
[17] = molecular target: T2, Alpha-mannosidase (Canavalia ensiformis) (UniProt C0HJB3); assay: Inhibition of jack bean alpha-mannosidase assessed as reduction of p-nitrophenol release using p-nitrophenyl-glycoside as substrate at 1000 uM by spectrophotometric analysis
T2 sequence (whole entry): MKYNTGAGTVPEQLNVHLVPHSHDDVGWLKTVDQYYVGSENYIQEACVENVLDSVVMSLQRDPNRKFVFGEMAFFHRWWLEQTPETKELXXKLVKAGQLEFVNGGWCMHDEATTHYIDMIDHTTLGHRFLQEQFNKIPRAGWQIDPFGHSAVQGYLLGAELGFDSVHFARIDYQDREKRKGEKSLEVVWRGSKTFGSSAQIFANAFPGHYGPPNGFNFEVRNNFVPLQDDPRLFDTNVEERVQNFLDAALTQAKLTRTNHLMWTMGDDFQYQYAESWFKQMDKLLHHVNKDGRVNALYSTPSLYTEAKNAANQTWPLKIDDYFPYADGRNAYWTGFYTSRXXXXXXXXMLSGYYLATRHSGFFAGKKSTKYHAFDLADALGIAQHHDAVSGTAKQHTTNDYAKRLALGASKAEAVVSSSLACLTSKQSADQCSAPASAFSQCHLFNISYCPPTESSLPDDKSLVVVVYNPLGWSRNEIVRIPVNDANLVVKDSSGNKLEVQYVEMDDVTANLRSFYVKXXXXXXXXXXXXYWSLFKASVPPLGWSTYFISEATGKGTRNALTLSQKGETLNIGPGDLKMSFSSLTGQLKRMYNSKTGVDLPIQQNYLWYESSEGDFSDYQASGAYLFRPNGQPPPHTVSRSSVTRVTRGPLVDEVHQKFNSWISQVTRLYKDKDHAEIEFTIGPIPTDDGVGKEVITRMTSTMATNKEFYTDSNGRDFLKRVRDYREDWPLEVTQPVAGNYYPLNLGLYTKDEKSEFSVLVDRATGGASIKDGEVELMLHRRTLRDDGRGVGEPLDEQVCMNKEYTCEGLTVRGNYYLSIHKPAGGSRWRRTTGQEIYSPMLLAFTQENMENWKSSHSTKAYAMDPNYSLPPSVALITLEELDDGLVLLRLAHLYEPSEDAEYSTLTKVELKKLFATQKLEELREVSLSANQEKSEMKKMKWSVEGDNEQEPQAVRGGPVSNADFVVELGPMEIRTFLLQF

[18] = organism: Bos taurus; assay: Inhibition of bovine liver beta-glucosidase assessed as reduction of p-nitrophenol release using p-nitrophenyl-glycoside as substrate at 1000 uM by spectrophotometric analysis
[19] = Inhibition of Escherichia coli beta-glucuronidase assessed as reduction of p-nitrophenol release using p-nitrophenyl-glycoside as substrate by spectrophotometric analysis
[20] = Inhibition of bovine liver beta-galactosidase assessed as reduction of p-nitrophenol release using p-nitrophenyl-glycoside as substrate by spectrophotometric analysis; set-up: species or system Bos taurus
[21] = Inhibition of rice alpha-glucosidase assessed as reduction of p-nitrophenol release using p-nitrophenyl-glycoside as substrate by spectrophotometric analysis; set-up: species or system Oryza sativa
[22] = molecular target: T3, Lysosomal acid glucosylceramidase (Homo sapiens, UniProt P04062); assay: Inhibition of human GCase
T3 sequence (P04062 whole entry): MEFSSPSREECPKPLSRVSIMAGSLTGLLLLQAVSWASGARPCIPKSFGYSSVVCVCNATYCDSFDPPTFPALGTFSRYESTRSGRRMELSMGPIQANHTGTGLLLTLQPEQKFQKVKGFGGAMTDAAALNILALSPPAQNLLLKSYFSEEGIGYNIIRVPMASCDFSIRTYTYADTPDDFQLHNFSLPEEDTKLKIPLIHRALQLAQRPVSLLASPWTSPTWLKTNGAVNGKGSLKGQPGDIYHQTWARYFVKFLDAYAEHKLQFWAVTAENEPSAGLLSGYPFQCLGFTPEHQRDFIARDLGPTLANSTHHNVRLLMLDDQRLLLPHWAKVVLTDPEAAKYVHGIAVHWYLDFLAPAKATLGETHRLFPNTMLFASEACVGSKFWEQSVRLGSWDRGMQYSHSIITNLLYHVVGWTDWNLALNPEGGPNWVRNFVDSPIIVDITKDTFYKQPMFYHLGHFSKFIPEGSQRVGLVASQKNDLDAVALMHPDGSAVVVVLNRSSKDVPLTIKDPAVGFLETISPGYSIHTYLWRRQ

[23] = molecular target: T3, Lysosomal acid glucosylceramidase; assay: Inhibition of human GCase assessed as reduction of 4-methylumbelliferone liberation using 4-methylumbelliferyl-beta-glucopyranoside as substrate preincubated with enzyme for 45 mins followed by substrate addition and measured after 30 mins by fluorescence spectrophotometry
[24] = Inhibition of almond beta-glucosidase assessed as reduction of p-nitrophenol release using p-nitrophenyl-glycoside as substrate by spectrophotometric analysis; set-up: species or system Prunus dulcis

Sucrase-isomaltase, intestinal, sequence (P23739 1-1013 limits assumed): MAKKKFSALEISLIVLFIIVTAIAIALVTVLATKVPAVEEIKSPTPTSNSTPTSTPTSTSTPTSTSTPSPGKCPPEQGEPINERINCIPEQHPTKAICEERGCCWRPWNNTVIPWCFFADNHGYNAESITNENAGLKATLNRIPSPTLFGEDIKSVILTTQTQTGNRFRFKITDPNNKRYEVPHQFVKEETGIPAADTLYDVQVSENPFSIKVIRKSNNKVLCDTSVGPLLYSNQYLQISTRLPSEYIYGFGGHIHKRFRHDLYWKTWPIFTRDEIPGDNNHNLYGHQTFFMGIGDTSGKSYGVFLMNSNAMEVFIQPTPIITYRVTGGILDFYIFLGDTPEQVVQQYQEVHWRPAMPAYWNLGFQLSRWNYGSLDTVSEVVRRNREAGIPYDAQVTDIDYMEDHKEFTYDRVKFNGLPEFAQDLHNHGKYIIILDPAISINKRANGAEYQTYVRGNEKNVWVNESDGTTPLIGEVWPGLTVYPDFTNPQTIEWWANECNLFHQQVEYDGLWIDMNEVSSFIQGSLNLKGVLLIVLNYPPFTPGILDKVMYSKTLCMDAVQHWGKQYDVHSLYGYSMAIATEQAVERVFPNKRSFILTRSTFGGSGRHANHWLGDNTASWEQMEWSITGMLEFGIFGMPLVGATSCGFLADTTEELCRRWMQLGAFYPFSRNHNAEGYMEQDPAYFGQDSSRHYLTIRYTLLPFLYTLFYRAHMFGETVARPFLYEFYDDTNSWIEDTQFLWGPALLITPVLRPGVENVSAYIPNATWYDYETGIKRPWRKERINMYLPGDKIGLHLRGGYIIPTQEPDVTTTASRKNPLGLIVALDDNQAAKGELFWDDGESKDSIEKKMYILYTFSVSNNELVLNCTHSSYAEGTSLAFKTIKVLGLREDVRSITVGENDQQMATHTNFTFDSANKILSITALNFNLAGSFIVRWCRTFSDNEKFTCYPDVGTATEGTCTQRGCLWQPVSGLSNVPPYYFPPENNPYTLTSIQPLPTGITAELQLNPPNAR
Sucrase-isomaltase, intestinal, sequence (P23739 1014-1841 limits assumed): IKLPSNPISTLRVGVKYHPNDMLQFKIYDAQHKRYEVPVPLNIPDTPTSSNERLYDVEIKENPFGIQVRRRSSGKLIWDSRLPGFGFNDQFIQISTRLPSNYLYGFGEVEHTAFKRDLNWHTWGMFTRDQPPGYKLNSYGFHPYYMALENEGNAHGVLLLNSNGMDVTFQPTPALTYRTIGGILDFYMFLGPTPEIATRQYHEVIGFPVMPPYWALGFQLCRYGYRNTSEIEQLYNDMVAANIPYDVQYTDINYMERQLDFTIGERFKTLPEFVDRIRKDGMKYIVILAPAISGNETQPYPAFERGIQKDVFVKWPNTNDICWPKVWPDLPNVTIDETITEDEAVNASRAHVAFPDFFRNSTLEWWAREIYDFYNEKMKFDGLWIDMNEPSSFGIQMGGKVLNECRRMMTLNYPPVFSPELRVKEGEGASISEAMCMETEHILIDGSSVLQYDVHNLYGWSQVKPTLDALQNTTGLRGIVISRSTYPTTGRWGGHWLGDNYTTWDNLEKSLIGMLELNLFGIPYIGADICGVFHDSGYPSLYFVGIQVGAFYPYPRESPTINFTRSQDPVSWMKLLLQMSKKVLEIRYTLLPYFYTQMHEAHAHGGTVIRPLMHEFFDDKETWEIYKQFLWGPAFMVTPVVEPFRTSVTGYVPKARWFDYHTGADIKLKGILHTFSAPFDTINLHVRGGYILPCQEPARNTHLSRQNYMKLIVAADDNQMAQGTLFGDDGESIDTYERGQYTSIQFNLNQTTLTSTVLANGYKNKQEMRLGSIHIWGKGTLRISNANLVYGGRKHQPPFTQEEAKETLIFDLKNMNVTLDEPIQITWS
Lysosomal alpha-glucosidase (Rattus norvegicus), sequence (Q6P7A9 whole entry): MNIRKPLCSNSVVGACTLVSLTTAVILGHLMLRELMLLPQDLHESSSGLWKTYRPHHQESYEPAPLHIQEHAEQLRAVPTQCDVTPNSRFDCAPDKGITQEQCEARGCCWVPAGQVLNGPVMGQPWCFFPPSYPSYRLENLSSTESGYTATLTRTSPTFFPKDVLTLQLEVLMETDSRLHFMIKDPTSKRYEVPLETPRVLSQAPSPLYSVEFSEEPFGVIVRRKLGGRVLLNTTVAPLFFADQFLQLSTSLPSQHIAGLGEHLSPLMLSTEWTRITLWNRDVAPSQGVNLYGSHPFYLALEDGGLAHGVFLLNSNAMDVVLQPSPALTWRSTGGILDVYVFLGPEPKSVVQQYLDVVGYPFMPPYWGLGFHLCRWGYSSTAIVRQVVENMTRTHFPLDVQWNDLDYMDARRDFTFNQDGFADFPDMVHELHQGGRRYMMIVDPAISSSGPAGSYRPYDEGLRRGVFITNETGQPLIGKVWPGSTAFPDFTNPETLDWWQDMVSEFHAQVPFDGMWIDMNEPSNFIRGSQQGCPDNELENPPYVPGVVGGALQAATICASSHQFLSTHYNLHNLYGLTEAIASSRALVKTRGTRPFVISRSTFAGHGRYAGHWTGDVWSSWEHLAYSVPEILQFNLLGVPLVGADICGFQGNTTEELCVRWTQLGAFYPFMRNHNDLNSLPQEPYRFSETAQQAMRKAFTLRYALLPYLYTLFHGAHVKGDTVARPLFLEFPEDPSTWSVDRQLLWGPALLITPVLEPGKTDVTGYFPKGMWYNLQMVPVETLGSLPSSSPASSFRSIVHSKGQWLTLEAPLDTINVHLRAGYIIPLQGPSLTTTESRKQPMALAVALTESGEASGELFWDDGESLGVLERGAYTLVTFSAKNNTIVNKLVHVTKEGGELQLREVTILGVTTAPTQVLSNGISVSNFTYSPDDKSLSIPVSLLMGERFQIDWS
Alpha-galactosidase (Coffea arabica), sequence (Q42656 16-378 limits assumed): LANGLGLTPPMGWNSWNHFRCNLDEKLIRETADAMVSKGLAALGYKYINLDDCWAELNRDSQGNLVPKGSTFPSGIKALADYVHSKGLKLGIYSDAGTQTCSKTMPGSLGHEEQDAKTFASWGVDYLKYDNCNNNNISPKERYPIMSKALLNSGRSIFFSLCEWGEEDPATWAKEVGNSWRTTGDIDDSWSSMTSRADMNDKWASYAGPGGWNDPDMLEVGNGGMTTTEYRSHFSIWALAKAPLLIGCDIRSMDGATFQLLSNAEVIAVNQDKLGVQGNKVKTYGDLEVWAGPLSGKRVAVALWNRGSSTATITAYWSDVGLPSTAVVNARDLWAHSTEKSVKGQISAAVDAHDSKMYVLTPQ

inhibition [1] [%] | IC50 [2] [µM] | inhibition [3] [%] | inhibition [4] [%] | inhibition [5] [%] | inhibition [6] [%] | inhibition [7] [%] | IC50 [8] [µM] | inhibition [10] [%] | inhibition [15] [%] | inhibition [16] [%] | inhibition [17] [%] | inhibition [18] [%] | IC50 [23] [µM] | SMILES | further results
 |  |  |  |  |  |  |  |  |  |  |  |  | 2.3 | CCCCCCCCCCC[C@H]1N[C@H](CO)[C@@H](O)[C@@H]1O | 
 |  |  |  |  |  |  |  |  |  |  |  |  | 1.9 | CCCCCCCCCC[C@H]1N[C@H](CO)[C@@H](O)[C@@H]1O | 
 |  |  |  |  |  |  |  |  |  |  |  |  | 0.77 | CCCCCCCCCCCCC[C@H]1N[C@H](CO)[C@@H](O)[C@@H]1O | 
 |  |  |  |  |  |  |  |  |  |  |  |  | 3.3 | CCCCCCCCC[C@H]1N[C@H](CO)[C@@H](O)[C@@H]1O | 
 |  |  |  |  |  |  |  |  |  |  |  |  | 30 | CCCCCC[C@H]1N[C@H](CO)[C@@H](O)[C@@H]1O | 
 |  |  |  |  |  |  |  |  |  |  |  |  | 34 | CCCCC[C@H]1N[C@H](CO)[C@@H](O)[C@@H]1O | 
 |  |  |  |  |  |  |  |  |  |  |  |  | 6.2 | CCCCCCCC[C@H]1N[C@H](CO)[C@@H](O)[C@@H]1O | 
 |  |  |  |  |  |  |  |  |  |  |  |  | 38 | CCCCCCC[C@H]1N[C@H](CO)[C@@H](O)[C@@H]1O | 

The next lines start with the compound.

SMILES | inhibition [1] [%] | IC50 [2] [µM] | inhibition [3] [%] | inhibition [4] [%] | inhibition [5] [%] | inhibition [6] [%] | inhibition [7] [%] | IC50 [8] [µM] | inhibition [10] [%] | inhibition [15] [%] | inhibition [16] [%] | inhibition [17] [%] | inhibition [18] [%] | IC50 [23] [µM] | further results
O[C@@H]1[C@@H](O)CN[C@H]1c1ccc(F)cc1 | 8.3 | 13 | 0 | 2.2 | 30 | 0 | 16.6 | 117 | 8.6 | 0 | 6.5 | 1.2 | 14.8 |  | inhibition [9]: 25.6%; inhibition [11]: 12.6%; inhibition [12]: 26.8%; inhibition [13]: 25.2%; inhibition [14]: 41.8%
Cc1ccc([C@H]2NC[C@@H](O)[C@@H]2O)cc1 | 2.8 | 3.4 | 0 | 1.9 | 15 | 4.2 | 0 | 1210 | 11 | 0.3 | 0 | 0 | 38.2 |  | IC50 [19]: 269 µM; IC50 [20]: 602 µM; inhibition [9]: 24.6%; inhibition [11]: 13.5%; inhibition [14]: 22.8%
O[C@@H]1[C@@H](O)CN[C@H]1c1ccccc1 [listing 1 of 3 here] |  | 22 |  |  |  |  |  | 603 |  |  |  |  |  |  | IC50 [21]: 560 µM
CCCCCCCCCC1NC[C@@H](O)[C@H](O)[C@H]1O (stereo partly drawn) |  |  |  |  |  |  |  |  |  |  |  |  |  |  | IC50 [22]: 0.0068 µM
O[C@@H]1[C@@H](O)CN[C@H]1c1ccccc1 [listing 2 of 3 here] |  |  |  |  |  |  |  |  |  |  |  |  |  |  | IC50 [22]: 26.5 µM
O[C@@H]1[C@@H](O)CN[C@H]1c1ccccc1 [listing 3 of 3 here] | 1.8 |  | 0 | 1.1 | 24.6 | 0 | 2.6 |  | 0.3 | 15 | 5.7 | 2 | 31.7 |  | inhibition [9]: 16.5%; inhibition [11]: 3.4%; inhibition [12]: 8.5%; inhibition [13]: 49%
O[C@H]1[C@H](O)CN[C@@H]1c1ccc(F)cc1 | 0 | 6.2 | 0 | 4.8 | 13.4 | 0 | 2 | 339 | 5.6 | 2 | 1.6 | 0.8 | 29 |  | inhibition [9]: 14%; inhibition [11]: 15%; inhibition [12]: 43.4%; inhibition [13]: 39.9%; inhibition [14]: 47.3%
Cc1ccc([C@@H]2NC[C@H](O)[C@H]2O)cc1 | 2.3 | 8.7 | 2.3 | 2.2 | 4.8 | 0 | 0 | 389 | 5.3 | 0.3 | 17.6 | 0.4 | 46.4 |  | IC50 [19]: 610 µM; IC50 [20]: 470 µM; inhibition [9]: 23.1%; inhibition [11]: 11%; inhibition [14]: 15.8%
O[C@H]1[C@H](O)CN[C@@H]1CCCc1ccccc1 | 8.3 | 3.1 | 0 | 5.6 | 26.5 | 6.2 | 0 | 264 | 28.5 | 0.3 | 5.3 | 20.6 | 42.1 |  | IC50 [19]: 910 µM; IC50 [20]: 578 µM; inhibition [14]: 38%; IC50 [24]: 565 µM
CCCCCCO[C@H]1CNC[C@@H](O)[C@@H]1O |  |  |  |  |  |  |  |  |  |  |  |  |  |  | IC50 [22]: 0.009 µM
